Values joined by “and” are separate entries in the source; they are usually repeats but may differ in a detail not shown here. Identical values can stand only once. Toxic doses and inconclusive results are not listed.
Test system: BDF1 mice, L1210 leukemia sc, survival T/C
Experiment: NCI In Vivo Anticancer Drug Screen. Data for tumor model L1210 Leukemia (subcutaneous) in B6D2F1 (BDF1) mice
Settings: endpoint: median survival time, higher = longer survival
Outline: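 Transplantable tumor-bearing mice; survival or tumor size recorded; result = T/C, treated vs vehicle control.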

SMILES: O=C(Nc1ccc(C2=NCCN2)cc1)c1ccc(C(=O)Nc2ccc(C3=NCCN3)cc2)c(Cl)c1
- T/C (dose: 0.19 mg/kg/injection, schedule: Q01DX Z (iv), vehicle: water): 100 % of control
- T/C (dose: 0.38 mg/kg/injection, schedule: Q01DX Z (iv), vehicle: water): 100 % of control
- T/C (dose: 0.75 mg/kg/injection, schedule: Q01DX Z (iv), vehicle: water): 90 % of control
- T/C (dose: 1.3 mg/kg/injection, schedule: Q01DX Z (ip), vehicle: water): 95 % of control
- T/C (dose: 1.5 mg/kg/injection, schedule: Q01DX Z (iv), vehicle: water): 95 % of control
- T/C (dose: 2.16 mg/kg/injection, schedule: Q01DX Z (ip), vehicle: water): 100 % of control
- T/C (dose: 2.16 mg/kg/injection, schedule: Q01DX Z (sc), vehicle: water): 95 % of control
- T/C (dose: 2.5 mg/kg/injection, schedule: Q01DX Z (sc), vehicle: methylcellulose (MC)): 111 % of control
- T/C (dose: 3.0 mg/kg/injection, schedule: Q01DX Z (ip), vehicle: water): 100 % of control
- T/C (dose: 3.0 mg/kg/injection, schedule: Q01DX Z (iv), vehicle: water): 100 % of control
- T/C (dose: 3.0 mg/kg/injection, schedule: Q01DX Z (sc), vehicle: saline): 100 % of control and 104 % of control
- T/C (dose: 3.6 mg/kg/injection, schedule: Q01DX Z (ip), vehicle: water): 90 % of control
- T/C (dose: 3.6 mg/kg/injection, schedule: Q01DX Z (sc), vehicle: water): 100 % of control
- T/C (dose: 5.0 mg/kg/injection, schedule: Q01DX Z (ip), vehicle: water): 100 % of control
- T/C (dose: 5.0 mg/kg/injection, schedule: Q01DX Z (sc), vehicle: methylcellulose (MC)): 116 % of control
- T/C (dose: 5.0 mg/kg/injection, schedule: Q01DX Z (sc), vehicle: saline): 100 % of control
- T/C (dose: 5.0 mg/kg/injection, schedule: Q01DX Z (sc), vehicle: water): 110 % of control and 111 % of control
- T/C (dose: 6.0 mg/kg/injection, schedule: Q01DX Z (ip), vehicle: water): 95 % of control
- T/C (dose: 6.0 mg/kg/injection, schedule: Q01DX Z (iv), vehicle: water): 100 % of control
- T/C (dose: 6.0 mg/kg/injection, schedule: Q01DX Z (sc), vehicle: water): 100 % of control
- T/C (dose: 8.4 mg/kg/injection, schedule: Q01DX Z (ip), vehicle: water): 160 % of control
- T/C (dose: 8.4 mg/kg/injection, schedule: Q01DX Z (sc), vehicle: saline): 109 % of control and 110 % of control and 122 % of control
- T/C (dose: 8.4 mg/kg/injection, schedule: Q01DX Z (sc), vehicle: water): 170 % of control
- T/C (dose: 10.0 mg/kg/injection, schedule: Q01DX Z (ip), vehicle: water): 105 % of control
- T/C (dose: 10.0 mg/kg/injection, schedule: Q01DX Z (sc), vehicle: methylcellulose (MC)): 244 % of control
- T/C (dose: 10.0 mg/kg/injection, schedule: Q01DX Z (sc), vehicle: water): 120 % of control and 233 % of control
- T/C (dose: 12.0 mg/kg/injection, schedule: Q01DX Z (sc), vehicle: water): 181 % of control
- T/C (dose: 14.0 mg/kg/injection, schedule: Q01DX Z (ip), vehicle: water): 160 % of control
- T/C (dose: 14.0 mg/kg/injection, schedule: Q01DX Z (sc), vehicle: saline): 210 % of control
- T/C (dose: 14.0 mg/kg/injection, schedule: Q01DX Z (sc), vehicle: water): 190 % of control and 170 % of control
- T/C (dose: 14.0 mg/kg/injection, schedule: Q02DX Z (sc), vehicle: saline): 100 % of control
- T/C (dose: 17.0 mg/kg/injection, schedule: Q01DX001 (ip), vehicle: water): 100 % of control
- T/C (dose: 17.0 mg/kg/injection, schedule: Q01DX Z (sc), vehicle: water): 210 % of control
- T/C (dose: 20.0 mg/kg/injection, schedule: Q01DX Z (sc), vehicle: methylcellulose (MC)): 244 % of control
- T/C (dose: 20.0 mg/kg/injection, schedule: Q01DX Z (sc), vehicle: water): 244 % of control
- T/C (dose: 23.0 mg/kg/injection, schedule: Q01DX Z (ip), vehicle: water): 180 % of control
- T/C (dose: 23.0 mg/kg/injection, schedule: Q01DX Z (sc), vehicle: other): 210 % of control
- T/C (dose: 23.0 mg/kg/injection, schedule: Q01DX Z (sc), vehicle: saline): 195 % of control and 200 % of control
- T/C (dose: 23.0 mg/kg/injection, schedule: Q01DX Z (sc), vehicle: water): 210 % of control and 240 % of control and 170 % of control
- T/C (dose: 23.0 mg/kg/injection, schedule: Q02DX Z (sc), vehicle: saline): 110 % of control
- T/C (dose: 23.0 mg/kg/injection, schedule: Q## X Z (sc), vehicle: saline): 110 % of control
- T/C (dose: 24.0 mg/kg/injection, schedule: Q01DX Z (sc), vehicle: water): 200 % of control
- T/C (dose: 28.0 mg/kg/injection, schedule: Q01DX001 (ip), vehicle: water): 100 % of control
- T/C (dose: 28.0 mg/kg/injection, schedule: Q01DX Z (ip), vehicle: water): 205 % of control
- T/C (dose: 28.0 mg/kg/injection, schedule: Q01DX Z (sc), vehicle: water): 190 % of control
- T/C (dose: 39.0 mg/kg/injection, schedule: Q01DX Z (sc), vehicle: other): 200 % of control
- T/C (dose: 39.0 mg/kg/injection, schedule: Q01DX Z (sc), vehicle: saline): 180 % of control and 185 % of control and 195 % of control
- T/C (dose: 39.0 mg/kg/injection, schedule: Q01DX Z (sc), vehicle: water): 210 % of control and 195 % of control
- T/C (dose: 39.0 mg/kg/injection, schedule: Q## X Z (sc), vehicle: saline): 170 % of control
- T/C (dose: 40.0 mg/kg/injection, schedule: Q01DX001 (sc), vehicle: methylcellulose (MC)): 111 % of control
- T/C (dose: 40.0 mg/kg/injection, schedule: Q01DX Z (sc), vehicle: methylcellulose (MC)): 177 % of control
- T/C (dose: 40.0 mg/kg/injection, schedule: Q01DX Z (sc), vehicle: water): 227 % of control
- T/C (dose: 47.0 mg/kg/injection, schedule: Q01DX001 (ip), vehicle: water): 100 % of control
- T/C (dose: 47.0 mg/kg/injection, schedule: Q01DX Z (sc), vehicle: water): 200 % of control
- T/C (dose: 48.0 mg/kg/injection, schedule: Q01DX Z (sc), vehicle: water): 181 % of control
- T/C (dose: 65.0 mg/kg/injection, schedule: Q01DX Z (sc), vehicle: other): 180 % of control
- T/C (dose: 65.0 mg/kg/injection, schedule: Q01DX Z (sc), vehicle: saline): 155 % of control and 163 % of control and 166 % of control
- T/C (dose: 65.0 mg/kg/injection, schedule: Q01DX Z (sc), vehicle: water): 155 % of control and 185 % of control and 170 % of control
- T/C (dose: 65.0 mg/kg/injection, schedule: Q## X Z (sc), vehicle: saline): 200 % of control
- T/C (dose: 78.0 mg/kg/injection, schedule: Q01DX001 (ip), vehicle: water): 100 % of control
- T/C (dose: 78.0 mg/kg/injection, schedule: Q01DX001 (sc), vehicle: water): 100 % of control
- T/C (dose: 78.0 mg/kg/injection, schedule: Q01DX Z (sc), vehicle: water): 170 % of control
- T/C (dose: 80.0 mg/kg/injection, schedule: Q01DX001 (sc), vehicle: methylcellulose (MC)): 116 % of control
- T/C (dose: 80.0 mg/kg/injection, schedule: Q01DX Z (sc), vehicle: methylcellulose (MC)): 111 % of control
- T/C (dose: 80.0 mg/kg/injection, schedule: Q01DX Z (sc), vehicle: water): 155 % of control
- T/C (dose: 108.0 mg/kg/injection, schedule: Q01DX001 (sc), vehicle: saline): 170 % of control
- T/C (dose: 108.0 mg/kg/injection, schedule: Q01DX Z (sc), vehicle: saline): 154 % of control
- T/C (dose: 108.0 mg/kg/injection, schedule: Q02DX Z (sc), vehicle: saline): 200 % of control
- T/C (dose: 130.0 mg/kg/injection, schedule: Q01DX001 (ip), vehicle: water): 105 % of control
- T/C (dose: 130.0 mg/kg/injection, schedule: Q01DX001 (sc), vehicle: water): 110 % of control
- T/C (dose: 160.0 mg/kg/injection, schedule: Q01DX001 (sc), vehicle: methylcellulose (MC)): 166 % of control
- T/C (dose: 160.0 mg/kg/injection, schedule: Q01DX001 (sc), vehicle: water): 161 % of control
- T/C (dose: 180.0 mg/kg/injection, schedule: Q01DX001 (sc), vehicle: saline): 190 % of control
- T/C (dose: 180.0 mg/kg/injection, schedule: Q01DX Z (sc), vehicle: other): 115 % of control
- T/C (dose: 180.0 mg/kg/injection, schedule: Q02DX Z (sc), vehicle: saline): 180 % of control
- T/C (dose: 300.0 mg/kg/injection, schedule: Q01DX Z (sc), vehicle: other): 90 % of control
- T/C (dose: 300.0 mg/kg/injection, schedule: Q01DX Z (sc), vehicle: water): 105 % of control
- T/C (dose: 300.0 mg/kg/injection, schedule: Q02DX Z (sc), vehicle: saline): 170 % of control
- T/C (dose: 300.0 mg/kg/injection, schedule: Q## X Z (sc), vehicle: saline): 205 % of control
- T/C (dose: 320.0 mg/kg/injection, schedule: Q01DX001 (sc), vehicle: water): 222 % of control
- T/C (dose: 360.0 mg/kg/injection, schedule: Q01DX001 (sc), vehicle: water): 155 % of control
- T/C (dose: 500.0 mg/kg/injection, schedule: Q## X Z (sc), vehicle: saline): 200 % of control
- T/C (dose: 600.0 mg/kg/injection, schedule: Q01DX001 (sc), vehicle: water): 150 % of control

From PubChem BioAssay AID250 (DTP/NCI, 2004)
